# From ChEMBL document CHEMBL1201862, “PubChem BioAssay data set” (2004)
# Calls of active or inactive are those of the source.
# Columns and labels:
# [1] = molecular target: T1, Exodeoxyribonuclease V (Escherichia coli (strain K12), UniProt P04993+P07648+P08394); experiment: RecBCD inhibition via phage-restricted bacterial growth – absorbance, V66 E. coli, mutant T4 phage, counter-screen for AddAB inhibitor project, dose response (AID 492957); type: functional, cell-based, Escherichia coli str. K-12 substr. MG1655
# T1 sequence (P04993 whole entry): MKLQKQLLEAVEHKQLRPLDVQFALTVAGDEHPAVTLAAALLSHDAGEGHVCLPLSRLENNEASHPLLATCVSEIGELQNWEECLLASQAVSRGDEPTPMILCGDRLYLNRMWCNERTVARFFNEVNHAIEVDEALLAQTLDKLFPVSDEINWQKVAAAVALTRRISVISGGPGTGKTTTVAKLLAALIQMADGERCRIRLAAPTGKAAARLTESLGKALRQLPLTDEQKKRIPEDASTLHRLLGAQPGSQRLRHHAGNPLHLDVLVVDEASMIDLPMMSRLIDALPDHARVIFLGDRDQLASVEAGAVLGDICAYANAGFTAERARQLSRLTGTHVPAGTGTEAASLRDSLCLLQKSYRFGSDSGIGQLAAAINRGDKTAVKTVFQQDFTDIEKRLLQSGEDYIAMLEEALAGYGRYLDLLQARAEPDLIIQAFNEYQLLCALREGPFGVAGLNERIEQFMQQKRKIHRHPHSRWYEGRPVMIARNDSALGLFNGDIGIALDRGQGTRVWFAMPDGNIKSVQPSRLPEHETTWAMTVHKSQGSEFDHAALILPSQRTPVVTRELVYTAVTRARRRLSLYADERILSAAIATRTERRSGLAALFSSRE
# T1 sequence (P07648 whole entry): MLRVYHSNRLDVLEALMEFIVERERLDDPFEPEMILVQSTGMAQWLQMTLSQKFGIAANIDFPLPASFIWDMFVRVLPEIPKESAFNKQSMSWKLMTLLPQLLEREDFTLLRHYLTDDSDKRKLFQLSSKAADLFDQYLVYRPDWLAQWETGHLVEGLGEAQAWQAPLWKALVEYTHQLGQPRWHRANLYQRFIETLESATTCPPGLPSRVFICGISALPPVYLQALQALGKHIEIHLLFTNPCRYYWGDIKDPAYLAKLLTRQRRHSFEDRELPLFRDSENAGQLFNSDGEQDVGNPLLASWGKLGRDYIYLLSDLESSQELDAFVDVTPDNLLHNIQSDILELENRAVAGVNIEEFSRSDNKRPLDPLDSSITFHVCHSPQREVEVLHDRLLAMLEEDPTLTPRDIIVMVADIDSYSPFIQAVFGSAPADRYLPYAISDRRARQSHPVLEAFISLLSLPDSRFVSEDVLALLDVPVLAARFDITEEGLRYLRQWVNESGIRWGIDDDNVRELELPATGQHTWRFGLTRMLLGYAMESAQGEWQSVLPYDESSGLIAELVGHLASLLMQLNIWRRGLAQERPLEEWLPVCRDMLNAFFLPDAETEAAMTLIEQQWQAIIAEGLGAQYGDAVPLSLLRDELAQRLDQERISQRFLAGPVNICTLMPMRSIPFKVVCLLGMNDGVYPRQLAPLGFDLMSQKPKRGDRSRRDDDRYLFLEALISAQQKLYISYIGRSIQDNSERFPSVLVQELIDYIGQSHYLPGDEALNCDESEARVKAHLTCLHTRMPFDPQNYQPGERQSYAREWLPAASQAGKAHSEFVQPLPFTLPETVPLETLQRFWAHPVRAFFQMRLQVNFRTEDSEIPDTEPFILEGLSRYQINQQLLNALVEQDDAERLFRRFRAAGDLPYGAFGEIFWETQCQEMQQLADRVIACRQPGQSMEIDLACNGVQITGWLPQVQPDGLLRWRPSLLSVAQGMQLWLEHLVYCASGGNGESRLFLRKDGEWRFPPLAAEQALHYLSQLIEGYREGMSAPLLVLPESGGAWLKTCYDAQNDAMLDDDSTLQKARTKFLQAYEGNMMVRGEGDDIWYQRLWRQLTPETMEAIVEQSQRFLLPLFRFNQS
# T1 sequence (P08394 whole entry): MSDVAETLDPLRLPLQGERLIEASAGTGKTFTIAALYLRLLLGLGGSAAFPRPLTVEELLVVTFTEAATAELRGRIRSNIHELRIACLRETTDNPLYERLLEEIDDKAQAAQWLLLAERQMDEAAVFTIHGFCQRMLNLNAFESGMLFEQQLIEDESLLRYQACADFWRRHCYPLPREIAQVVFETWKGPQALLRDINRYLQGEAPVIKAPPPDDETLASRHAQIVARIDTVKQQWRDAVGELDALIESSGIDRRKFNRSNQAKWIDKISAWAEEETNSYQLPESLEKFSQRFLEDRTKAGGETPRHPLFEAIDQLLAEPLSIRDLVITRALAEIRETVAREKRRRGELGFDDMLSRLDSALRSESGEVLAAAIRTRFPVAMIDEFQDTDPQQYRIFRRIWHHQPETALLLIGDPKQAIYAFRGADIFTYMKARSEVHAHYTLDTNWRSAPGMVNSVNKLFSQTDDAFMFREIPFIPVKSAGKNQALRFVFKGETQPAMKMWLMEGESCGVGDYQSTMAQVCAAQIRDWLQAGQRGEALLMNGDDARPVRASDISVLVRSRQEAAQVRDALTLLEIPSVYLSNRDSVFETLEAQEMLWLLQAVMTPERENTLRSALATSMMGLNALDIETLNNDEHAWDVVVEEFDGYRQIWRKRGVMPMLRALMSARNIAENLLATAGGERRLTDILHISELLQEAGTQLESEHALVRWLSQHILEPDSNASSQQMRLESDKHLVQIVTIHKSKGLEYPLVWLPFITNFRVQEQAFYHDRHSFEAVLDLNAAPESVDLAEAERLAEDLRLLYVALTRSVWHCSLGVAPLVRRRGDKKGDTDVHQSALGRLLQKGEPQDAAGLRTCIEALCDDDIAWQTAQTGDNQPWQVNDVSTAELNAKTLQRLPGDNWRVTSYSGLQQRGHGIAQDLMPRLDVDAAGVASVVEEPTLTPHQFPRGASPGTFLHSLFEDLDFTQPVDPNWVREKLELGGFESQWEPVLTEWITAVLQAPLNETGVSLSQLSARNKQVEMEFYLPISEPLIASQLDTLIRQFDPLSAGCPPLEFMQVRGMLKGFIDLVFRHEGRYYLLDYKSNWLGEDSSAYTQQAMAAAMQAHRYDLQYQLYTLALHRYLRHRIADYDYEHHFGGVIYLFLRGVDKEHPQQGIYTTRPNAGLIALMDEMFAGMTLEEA
# [2] = Counterscreen for AddAB inhibitors: absorbance-based bacterial cell-based high throughput dose response assay for inhibitors of bacterial viability. [Related pubchem assays (depositor defined):AID435030, AID449728, AID449731, AID488942, AID488955, AID488956]; type: functional
# [3] = tested on: HEK293; experiment: inhibition of NOD1-driven NF-kB reporter – cell-based, luminescence, uHTS, primary screen (AID 1578); type: functional; conditions: Homo sapiens
# [4] = tested on: Streptococcus sp. 'group A'; experiment: Streptococcus pyogenes SK(-)GAS viability under kanamycin – luminescence, BacTiterGlo, confirmation, counter-screen for streptokinase expression inhibitor project, dose response (AID 1900); type: functional, organism-based
# [5] = tested on: HEK293; experiment: cells; type: functional, cell-based; conditions: Homo sapiens
# [6] = molecular target: T2, Streptokinase A (Streptococcus pyogenes serotype M1, UniProt P10520); experiment: viability-normalized secreted streptokinase activity reduction – plasminogen activation absorbance, OD405, dose response (AID 1914); type: functional, Streptococcus pyogenes M1 GAS;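 note: secreted streptokinase activity via plasminogen activation per viability signal from cell pellet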
# T2 sequence (P10520 whole entry): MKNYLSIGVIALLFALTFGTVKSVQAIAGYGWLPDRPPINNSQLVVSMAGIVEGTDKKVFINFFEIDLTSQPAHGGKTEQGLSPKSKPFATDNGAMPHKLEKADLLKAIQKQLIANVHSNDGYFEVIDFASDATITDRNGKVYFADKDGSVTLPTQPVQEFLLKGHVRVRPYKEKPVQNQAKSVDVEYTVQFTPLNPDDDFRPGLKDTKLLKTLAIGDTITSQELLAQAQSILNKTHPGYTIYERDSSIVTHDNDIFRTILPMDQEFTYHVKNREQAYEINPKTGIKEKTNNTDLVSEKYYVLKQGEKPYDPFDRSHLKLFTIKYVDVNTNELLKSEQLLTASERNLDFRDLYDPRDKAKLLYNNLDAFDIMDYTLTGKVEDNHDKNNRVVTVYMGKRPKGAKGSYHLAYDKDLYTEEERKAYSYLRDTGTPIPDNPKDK
# [7] = tested on: HEK293; experiment: cells; type: functional, cell-based; conditions: Homo sapiens; remark: listed apart in the source
# [8] = molecular target: Nucleotide-binding oligomerization domain-containing protein 2 (Homo sapiens, UniProt Q9HC29); experiment: inhibition of NOD2-driven NF-kB reporter – cell-based, luminescence, uHTS, HEK293 (AID 1566); type: functional
# Sequence of Nucleotide-binding oligomerization domain-containing protein 2 (Q9HC29 whole entry, the tested form may be a part): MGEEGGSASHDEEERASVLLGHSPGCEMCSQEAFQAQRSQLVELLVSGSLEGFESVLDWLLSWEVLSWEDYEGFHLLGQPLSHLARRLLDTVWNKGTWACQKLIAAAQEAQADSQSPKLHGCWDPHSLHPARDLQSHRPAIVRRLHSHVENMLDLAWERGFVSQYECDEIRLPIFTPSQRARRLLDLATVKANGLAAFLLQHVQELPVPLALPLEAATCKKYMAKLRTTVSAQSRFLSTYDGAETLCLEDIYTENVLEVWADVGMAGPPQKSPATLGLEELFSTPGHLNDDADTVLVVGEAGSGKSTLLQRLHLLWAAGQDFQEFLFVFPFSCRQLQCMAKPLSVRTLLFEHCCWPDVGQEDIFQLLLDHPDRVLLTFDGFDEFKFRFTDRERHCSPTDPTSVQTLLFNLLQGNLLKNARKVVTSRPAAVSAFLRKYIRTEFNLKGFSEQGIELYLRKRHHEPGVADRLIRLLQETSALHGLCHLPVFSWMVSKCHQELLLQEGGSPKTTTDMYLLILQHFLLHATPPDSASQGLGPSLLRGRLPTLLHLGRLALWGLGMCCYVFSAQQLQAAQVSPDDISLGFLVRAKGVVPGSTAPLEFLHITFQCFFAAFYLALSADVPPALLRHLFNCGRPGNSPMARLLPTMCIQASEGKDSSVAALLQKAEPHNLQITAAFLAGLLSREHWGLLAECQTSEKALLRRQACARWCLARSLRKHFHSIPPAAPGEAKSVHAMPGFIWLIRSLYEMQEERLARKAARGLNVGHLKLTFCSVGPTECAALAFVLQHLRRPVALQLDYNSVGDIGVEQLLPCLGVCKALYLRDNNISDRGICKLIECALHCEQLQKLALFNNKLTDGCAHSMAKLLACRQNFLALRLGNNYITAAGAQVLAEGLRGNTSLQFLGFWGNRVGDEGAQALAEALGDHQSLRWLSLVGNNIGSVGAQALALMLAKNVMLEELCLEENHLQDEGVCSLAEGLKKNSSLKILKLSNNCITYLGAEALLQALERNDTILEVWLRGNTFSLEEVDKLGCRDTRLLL
# [9] = tested on: HEK293; experiment: NOD2 signaling inhibitors in MDP-stimulated cells, cell-based, uHTS, luminescence (AID 2001); type: functional; conditions: Homo sapiens
# [10] = Trypanosoma cruzi growth suppression in host cells – NIH3T3 host cells, beta-gal luminescence, confirmation (AID 2044); type: functional, cell-based;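 note: intracellular parasites grown in NIH/3T3 mouse fibroblasts as host cells; luminescent beta-galactosidase reporter signal from transgenic T. cruzi replicating inside host cells; inhibitors lower the luminescence signal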
# [11] = tested on: HEK293; experiment: cells; type: functional, cell-based; conditions: Homo sapiens; remark: listed apart in the source
# [12] = NIH3T3 cell viability loss – ATP luminescence, mouse fibroblasts, counter-screen, dose response (AID 2010); type: functional, cell-based;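 note: cells exposed to compound for about 90 hours before reading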
# [13] = tested on: Streptococcus; experiment: GAS UMAA2166 growth inhibition – luminescence, BacTiterGlo, counter-screen for streptokinase expression inhibitor project, dose response (AID 1915); type: functional, organism-based;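 note: potency for reduction of bacterial viability or growth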
# [14] = tested on: Vero; experiment: cells; type: functional; conditions: Chlorocebus sabaeus
# [15] = A549 cell cytotoxicity, dose response, cytotoxicity control, plate reader, cherry-pick, antagonist series (AID 743412); type: functional, cell-based
# [16] = toxicity toward HepG2 liver cells – cell-based, plate reader, cherry-pick, antagonist series, cytotoxicity control, dose response (AID 743416); type: functional
# [17] = blockers of bursicon-stimulated LGR2 cAMP reporter – cell-based, HEK293, CRE-luciferase reporter, cherry pick, set 2, dose response (AID 743343); type: functional;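 note: transfected cells were stimulated with diluted bursicon conditioned medium after compound addition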
# [18] = blockade of melanocortin 4 receptor signaling – cell-based, plate reader, cherry pick, counter-screen for LGR2 antagonist project, dose response (AID 743444); type: functional;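 note: transfected HEK 293 cells stimulated with alpha-MSH peptide; potency of inhibitors of the alpha-MSH evoked signal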
# [19] = viability loss in HEK293 cells – cell-based, plate reader, cherry-picked samples, cytotoxicity control, dose response (AID 743446); type: functional
Structure (SMILES),IC50 [1],IC50 [2],EC50 [3],EC50 [4],IC50 [5],EC50 [6],IC50 [7],EC50 [8],IC50 [9],EC50 [10],IC50 [11],EC50 [12],EC50 [13],CC50 [14],AC50 [15],AC50 [16],AC50 [17],AC50 [18],AC50 [19]
CCOc1cccc(/C=N/NC(=O)c2cc(-c3cccn3C)[nH]n2)c1O,> 119 µM (inactive),> 119 µM (inactive),–,–,–,–,–,–,–,–,–,–,–,–,–,–,–,–,–
CC(=O)c1c(C)[nH]c(C(=O)Nc2nc(-c3ccc(-c4ccccc4)cc3)cs2)c1C,–,–,3.76 µM (active),4.48 µM (active),4.41 µM (active),> 150 µM (not active),11.2 µM (active),14.1 µM (active),4.86 µM (inactive),0.876 µM (active),18.2 µM (active),> 60 µM (not active),16.7 µM (active),21.1 µM (active),17.6 µM (active),23.5 µM (active),40.2 µM (active),20 µM (active),17.9 µM (active)
